What was measured:
[1] = Cytotoxicity against African green monkey Vero cells assessed as cell viability measured after 24 hrs incubation by MTT assay; assay type: toxicity, cell-based; conditions: chlorocebus sabaeus
Human alphaherpesvirus 1 [2] = assay: Antiviral activity against HSV1 infected in African green monkey Vero cells assessed as reduction of virus-induced cytopathic effect measured after 48 hrs of incubation; assay type: functional, organism-based; conditions: Human alphaherpesvirus 1, Vero
[3] = Selectivity index, ratio of CC50 for Cytotoxicity against african green monkey Vero cells to IC50 for Antiviral activity against HSV1 infected in African green monkey Vero cells; assay type: toxicity, cell-based; conditions: read-out: Selectivity Index
Human alphaherpesvirus 1 [4] = assay: Antiviral activity against ACV-resistant HSV1 Blue infected in African green monkey Vero cells assessed as reduction of virus-induced cytopathic effect measured after 48 hrs of incubation; assay type: functional, organism-based; conditions: Human alphaherpesvirus 1, Blue
Human alphaherpesvirus 1 [5] = assay: Antiviral activity against ACV-resistant HSV1 153 infected in African green monkey Vero cells assessed as reduction of virus-induced cytopathic effect measured after 48 hrs of incubation; assay type: functional, organism-based; conditions: Human alphaherpesvirus 1, 153, Vero

SMILES | CC50 at 24 h [1] | IC50 (Human alphaherpesvirus 1 [2]) | selectivity ratio [3] | IC50 (Human alphaherpesvirus 1 [4]) | IC50 (Human alphaherpesvirus 1 [5])
CC(C)C1C2=C(Oc3cc(O)cc(O)c31)C(C)(C)C(=O)C(C)(C)C2=O (centres undefined) | 20000 nM | 9000 nM | 2.22 |  | 
CC(C)CC1C2=C(Oc3cc(O)c(C(=O)CCc4ccccc4)c(O)c31)C(C)(C)C(=O)C(C)(C)C2=O (centres undefined) | 7000 nM | 450 nM | 15.6 | 200 nM | 400 nM
CC(C)CC(=O)c1c(O)cc2c(c1O)C(C1CCCCC1)C1=C(O2)C(C)(C)C(=O)C(C)(C)C1=O (centres undefined) | 10000 nM | 800 nM | 12.5 | 500 nM | 500 nM
CC(C)CC1C2=C(Oc3cc(O)c(C(=O)CCCCCl)c(O)c31)C(C)(C)C(=O)C(C)(C)C2=O (centres undefined) | 8000 nM | 450 nM | 16 | 600 nM | 500 nM
CC(C)CC(=O)c1c(OS(=O)(=O)C(F)(F)F)cc2c(c1O)C(CC(C)C)C1=C(O2)C(C)(C)C(=O)C(C)(C)C1=O (centres undefined) | 20000 nM | 1200 nM | 16.7 | 1000 nM | 600 nM
CC(C)CC1C2=C(Oc3cc(O)c(C(=O)C4CCCCC4)c(O)c31)C(C)(C)C(=O)C(C)(C)C2=O (centres undefined) | 7000 nM | 200 nM | 35 | 250 nM | 300 nM
CC(C)CC(=O)c1c(O)cc2c(c1O)[C@H](CC(C)C)C1=C(O2)C(C)(C)C(=O)C(C)(C)C1=O | 7280 nM | 390 nM | 18.7 |  | 
CC(C)CC(=O)c1c(O)c(Br)c2c(c1O)C(CC(C)C)C1=C(O2)C(C)(C)C(=O)C(C)(C)C1=O (centres undefined) | 7000 nM | 600 nM | 11.7 | 600 nM | 700 nM
CCCC(=O)c1c(O)cc2c(c1O)C(CC(C)C)C1=C(O2)C(C)(C)C(=O)C(C)(C)C1=O (centres undefined) | 10000 nM | 500 nM |  | 800 nM | 600 nM
CC(C)CC(=O)c1c(O)cc2c(c1O)C(C1CCCC1)C1=C(O2)C(C)(C)C(=O)C(C)(C)C1=O (centres undefined) | 8000 nM | 700 nM | 11.4 | 500 nM | 500 nM
CC(C)CC(=O)c1c(O)cc2c(c1O)C(CC(C)C)C1=C(CCCC1=O)O2 (centres undefined) | 16000 nM | 3000 nM | 5.33 |  | 
CCCCC1C2=C(Oc3cc(O)c(C(=O)CC(C)C)c(O)c31)C(C)(C)C(=O)C(C)(C)C2=O (centres undefined) | 10000 nM | 1000 nM | 10 | 600 nM | 400 nM
CC(C)CC(=O)c1c(O)cc2c(c1O)C(c1ccccc1)C1=C(O2)C(C)(C)C(=O)C(C)(C)C1=O (centres undefined) | 11000 nM | 450 nM | 24.4 | 400 nM | 300 nM
CC(C)CC1C2=C(Oc3cc(O)c(C(=O)Cc4ccc(F)cc4)c(O)c31)C(C)(C)C(=O)C(C)(C)C2=O (centres undefined) | 6000 nM | 350 nM | 17.1 | 200 nM | 200 nM
CC(C)CC1C2=C(Oc3cc(O)c(C(=O)c4ccccc4)c(O)c31)C(C)(C)C(=O)C(C)(C)C2=O (centres undefined) | 10000 nM | 2500 nM | 4 |  | 
CC(=O)c1c(O)cc(O)c2c1OC1=C(C(=O)C(C)(C)C(=O)C1(C)C)C2CC(C)C (centres undefined) | > 100000 nM | 10000 nM | > 10 |  | 
CC(C)CC(=O)c1c(O)cc2c(c1O)[C@H](CC(C)C)C1=C(O2)C(C)(C)[C@@H](O)C(C)(C)C1=O | 7500 nM | 2500 nM | 3 |  | 
CC(C)CC1C2=C(Oc3cc(O)c(C(=O)C(C)C)c(O)c31)C(C)(C)C(=O)C(C)(C)C2=O (centres undefined) | 7000 nM | 630 nM | 17.8 | 300 nM | 400 nM
CC(C)CC(=O)c1c(O)cc(O)c2c1OC1=C(C(=O)C(C)(C)C(=O)C1(C)C)C2c1ccccc1 (racemic) | 12800 nM | 2500 nM | 5.11 |  | 
CC(C)CC(=O)c1c(O)cc2c(c1O)C(Cc1ccccc1)C1=C(O2)C(C)(C)C(=O)C(C)(C)C1=O (centres undefined) | 13000 nM | 600 nM | 21.7 | 600 nM | 600 nM
COc1cc2c(c(OC)c1C(=O)CC(C)C)C(CC(C)C)C1=C(O2)C(C)(C)C(=O)C(C)(C)C1=O (centres undefined) | > 100000 nM | 50000 nM |  |  | 
CC(C)CC(=O)c1c(O)cc2c(c1O)C(CC(C)C)C1=C(CCC(C)(C)C1=O)O2 (centres undefined) | 16000 nM | 2200 nM | 7.27 |  | 
CC(C)CC(=O)c1c(O)cc2c(c1O)C(C)C1=C(O2)C(C)(C)C(=O)C(C)(C)C1=O (racemic) | 10000 nM | 800 nM | < 18.8 |  | 
CC(C)CC(=O)c1c(O)cc(O)c2c1OC1=C(C(=O)C(C)(C)C(=O)C1(C)C)C2CC(C)C (racemic) | 10000 nM | 2250 nM | 4.44 |  | 
CC1(C)C(=O)C2=C(Oc3cc(O)cc(O)c3C2c2ccccc2)C(C)(C)C1=O (centres undefined) | 18000 nM | 8000 nM | 2.25 |  | 
